Values quoted from earlier work in patent US20240366754A1, “PHARMACEUTICAL COMPOSITIONS FOR DELIVERY OF VIRAL ANTIGENS AND RELATED METHODS” (BioNTech SE, priority 2021, published 2024).
“Also recorded” adds a separate entry of the source. Like-named read-outs stand apart in the source and are kept apart here.

Legend:
norovirus = details: in vivo

Row | SMILES | Most common adverse effects (Intravenous formulations) | Most common adverse effects (Oral formulations) | effect on norovirus illness (norovirus)
1 | O=C(O)P(=O)(O)O [foscarnet] | fever, headache,; also recorded: renal dysfunction,; also recorded: electrolyte; also recorded: abnormalities,; also recorded: nausea, vomiting; also recorded: diarrhea, anemia,; also recorded: granulocytopenia | – | –
2 | CC(C)[C@H](N)C(=O)OCCOCn1cnc2c(=O)[nH]c(N)nc21 [valacyclovir] | – | headache, nausea,; also recorded: abdominal pain | –
3 | CC(=O)Oc1ccccc1C(=O)Nc1ncc([N+](=O)[O-])s1 [nitazoxanide] | – | – | reduce the duration of illness
4 | Nc1nc2c(ncn2COCCO)c(=O)[nH]1 [acyclovir] | phlebitis, acute renal; also recorded: failure, nausea,; also recorded: vomiting, rash | malaise, headache,; also recorded: nausea, vomiting | –
5 | CC(=O)OCC(CCn1cnc2cnc(N)nc21)COC(C)=O [famciclovir] | – | headache, nausea,; also recorded: fatigue, diarrhea | –
